Measured values reported in patent US20240150356A1, “Pyrimidine amide compounds and use thereof” (ALPHALA CO., LTD., priority 2019, published 2024).
Like-named read-outs stand apart in the source and are kept apart here.

Tested on: Hep3B cells (hepatocellular carcinoma cell line)
Test: In vitro MTS cell viability assay (NCI-60 methodology), Hep3B
Format: cell-based
Settings: Homo sapiens, 48 h, 2 days drug incubation, 50% reduction vs time zero, read-out: Hep3B LC50
Procedure: The cell viability measurement is based on the NCI-60 screening methodology (Nat. Rev. Cancer 6, 813-823, 2006). Briefly, cells are inoculated into 96-well plates at the optimal plating density. After 24 h, one of the two plates for Hep3B cell line is processed to determine a time zero cell viability (Tz) by MTS assay (Promega). Compounds are added over a 2-fold serial dilution to provide a total five drug concentrations plus DMSO control. Plates are incubated for a further 2 days, then measured cell viability by MTS assay [control growth (C) and test growth in the presence of drug at the five concentration levels (Ti)]. The LC50 is calculated from [(Ti−Tz)/Tz]×100=−50, which is the drug concentration resulting in a 50% reduction at the end of the drug treatment as compared to that at the beginning.
The compounds prepared in Tables 1-10 were tested in three in vitro assays, and the results are shown in Tables 1-10 for Hep3B and Table 11 for SW480 and NCI-H460 shown below. Herein, Hep3B refers to hepatocellular carcinoma cell line, SW480 refers to colon adenocarcinoma cell line, and NCI-H460 refers to human lung cancer cell line.
Shown in following Tables 1 to 10 are the structures and in vitro activities of exemplary compounds of formula (I).

CC1CC(C)CC(n2ncc3c(NC(=O)c4ccc([N+](=O)[O-])s4)nc(-c4ccc(F)nc4)nc32)C1 (centres unmarked) [Compound 10-68, N-(1-(3,5-dimethylcyclohexyl)-6-(6-fluoropyridin-3-yl)-1H-pyrazolo[3,4-d]pyrimidin-4-yl)-5-nitrothiophene-2-carboxamide] was tested, and the LC50 (Table 10, MTS) was 970 nM.
For CCOCCOCCOc1ccc(-c2nc(NC(=O)c3ccc([N+](=O)[O-])s3)c3cnn(-c4ccc(C(F)(F)F)cc4)c3n2)cn1 [Compound 6-56, N-(6(6-(2-(2-ethoxyethoxy)ethoxy)pyridin-3-yl)-1-(4-(trifluoromethyl)phenyl)-1H-pyrazolo[3,4-d]pyrimidin-4-yl)-5-nitrothiophene-2-carboxamide], the LC50 (Table 6, MTS) was 200 nM.
Compound CCOCCOCCOc1ccc(-c2nc(NC(=O)c3ccc([N+](=O)[O-])s3)c3cnn(-c4ccccc4)c3n2)cn1 [Compound 5-57, N-(6-(6-(2-(2-ethoxyethoxy)ethoxy)pyridin-3-yl)-1-phenyl-1H-pyrazolo[3,4-d]pyrimidin-4-yl)-5-nitrothiophene-2-carboxamide] has an LC50 (Table 5, MTS) of 790 nM.
Cc1ccn(-c2nc(NC(=O)c3ccc([N+](=O)[O-])s3)c3cnn(-c4ccc(Cl)cc4)c3n2)n1 [Compound 6-46, N-(1-(4-chlorophenyl)-6-(3-methyl-1H-pyrazol-1-yl)-1H-pyrazolo[3,4-d]pyrimidin-4-yl)-5-nitrothiophene-2-carboxamide] was tested, and the LC50 (Table 6, MTS) was 160 nM.
Compound CCOCCOCCOc1nc(NC(=O)c2ccc([N+](=O)[O-])s2)c2cnn(-c3ccc(C(C)(C)C)cc3)c2n1 [Compound 6-61] has an LC50 (Table 6, MTS) of 540 nM.
For CC(=O)N1CC[C@H](n2ncc3c(NC(=O)c4ccc([N+](=O)[O-])s4)nc(-c4ccc(F)nc4)nc32)C1 [Compound 8-2, (S)—N-(1-(1-acetylpyrrolidin-3-yl)-6-(6-fluoropyridin-3-yl)-1H-pyrazolo[3,4-d]pyrimidin-4-yl)-5-nitrothiophene-2-carboxamide], the LC50 (Table 8, MTS) was > 3000 nM.
For Cc1nn(C)c2c(NC(=O)c3ccc([N+](=O)[O-])s3)nc(-c3cccc(OC(F)(F)F)c3)nc12 [Compound 3-4, N-(1,3-dimethyl-5-(3-(trifluoromethoxy)phenyl)-1H-pyrazolo[4,3-d]pyrimidin-7-yl)-5-nitrothiophene-2-carboxamide], the LC50 (Table 3, MTS) was 1510 nM.
O=C(Nc1nc(-c2ccc(F)cc2)nc2c1cnn2-c1ccc(Cl)cc1Cl)c1ccc([N+](=O)[O-])s1 [Compound 7-9] was tested, and the LC50 (Table 7, MTS) was 370 nM.
For O=C(Nc1nc(-c2ccc(Cl)cc2)nc2c1cnn2Cc1ccccc1)c1ccc([N+](=O)[O-])s1 [Compound 7-16, N-(1-benzyl-6-(4-chlorophenyl)-1H-pyrazolo[3,4-d]pyrimidin-4-yl)-5-nitrothiophene-2-carboxamide], the LC50 (Table 7, MTS) was > 1250 nM.
For CCOc1ccc(-c2nc(NC(=O)c3ccc([N+](=O)[O-])s3)c3cnn(C4CCC(F)(F)CC4)c3n2)cc1 [Compound 10-59, N-(1-(4,4<fluorocyclohexyl)-4-(4-ethoxyphenyl)-1H-pyrazolo[3,4-d]pyrimidin-4-yl)-5-nitrothiophene-2-carboxamide], the LC50 (Table 10, MTS) was 1280 nM.
Cc1csc2c(NC(=O)c3ccc([N+](=O)[O-])s3)nc(-c3ccc(C(C)(C)C)cc3)nc12 [Compound 4-1] gave an LC50 (Table 4, MTS) of 1150 nM.
For O=C(Nc1nc(N2CCC[C@H]2CO)nc2c1cnn2C1CCCCC1)c1ccc([N+](=O)[O-])s1 [Compound 10-3, (S)—N-(1-cyclohexyl-6-(2-(hydroxymethyl)pyrrolidin-1-yl)-1H-pyrazolo[3,4-d]pyrimidin-4-yl)-5-nitrothiophene-2-carboxamide], the LC50 (Table 10, MTS) was > 5000 nM.
CC(C)N1CC[C@H](n2ncc3c(NC(=O)c4ccc([N+](=O)[O-])s4)nc(-c4ccc(F)nc4)nc32)C1 [Compound 8-1, (S)—N-(6-(6-fluoropyridin-3-yl)-1-(1-isopropylpyrrolidin-3-yl)-1H-pyrazolo[3,4-d]pyrimidin-4-yl)-5-nitrothiophene-2-carboxamide] was tested, and the LC50 (Table 8, MTS) was > 3000 nM.
With O=C(Nc1nc(OCCN2CCOCC2)nc2c1cnn2-c1ccccc1)c1ccc([N+](=O)[O-])s1 [Compound 5-12, N-(6-(2-morpholinoethoxy)-1-phenyl-1H-pyrazolo[3,4-d]pyrimidin-4-yl)-5-nitrothiophene-2-carboxamide] the LC50 (Table 5, MTS) was > 3000 nM.
